How the values were obtained:
Format in all cases: in vivo
[1] = system: Kochia (Kochia scoparia); assay: Test A preemergence; settings: Bassia scoparia, pre-emergence, 240 h, 0 to 100 scale where 0 is no effect and 100 is complete control, read-out: Kochia plant response rating; for pest or weed control at 31 g/ha: 31 g ai/ha, Preemergence; for pest or weed control at 125 g/ha: 125 g ai/ha, preemergence, approx. 10 d
In short: (§1)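 Each rating is a visual injury score from 0 to 100 given about 10 d after treatment, judged against untreated controls kept alongside in the greenhouse. In loam soil–sand blend, seeds got a preemergence directed soil spray, while postemergence plants were 2 to 10 cm tall at spraying.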

[2] = system: barnyardgrass (Echinochloa crus-galli); assay: Test A preemergence; settings: Echinochloa crus-galli, pre-emergence, 240 h, 0 to 100 scale where 0 is no effect and 100 is complete control, read-out: Barnyardgrass plant response rating; for pest or weed control at 31 g/ha: 31 g ai/ha, Preemergence; for pest or weed control at 125 g/ha: 125 g ai/ha, preemergence, approx. 10 d
In short: as §1

[3] = system: giant foxtail (Setaria faberii); assay: Test A preemergence; settings: Setaria faberi, pre-emergence, 240 h, 0 to 100 scale where 0 is no effect and 100 is complete control, read-out: Foxtail, Giant plant response rating; for pest or weed control at 31 g/ha: 31 g ai/ha, Preemergence; for pest or weed control at 125 g/ha: 125 g ai/ha, preemergence, approx. 10 d
In short: as §1

[4] = system: pigweed (Amaranthus retroflexus); assay: Test A preemergence; settings: Amaranthus retroflexus, pre-emergence, 240 h, 0 to 100 scale where 0 is no effect and 100 is complete control, read-out: Pigweed plant response rating; for pest or weed control at 31 g/ha: 31 g ai/ha, Preemergence; for pest or weed control at 125 g/ha: 125 g ai/ha, preemergence, approx. 10 d
[5] = system: ragweed (common ragweed, Ambrosia elatior); assay: Test A preemergence; settings: Ambrosia artemisiifolia, pre-emergence, 240 h, 0 to 100 scale where 0 is no effect and 100 is complete control, read-out: Ragweed plant response rating; for pest or weed control at 31 g/ha: 31 g ai/ha, Preemergence; for pest or weed control at 125 g/ha: 125 g ai/ha, preemergence, approx. 10 d
In short: as §1

[6] = system: ryegrass, Italian (Italian ryegrass, Lolium multiflorum); assay: Test A preemergence; settings: Lolium multiflorum, pre-emergence, 240 h, 0 to 100 scale where 0 is no effect and 100 is complete control, read-out: Ryegrass, Italian plant response rating; for pest or weed control at 31 g/ha: 31 g ai/ha, Preemergence; for pest or weed control at 125 g/ha: 125 g ai/ha, preemergence, approx. 10 d
In short: as §1

[7] = system: Galium (catchweed bedstraw, Galium aparine); assay: Test A postemergence; settings: Galium, post-emergence, 240 h; for pest or weed control at 125 g/ha: 125 g ai/ha, postemergence, visual injury on 0 to 100 scale (0 no effect, 100 complete control), approx. 10 d, read-out: Galium plant response rating; for pest or weed control at 31 g/ha: Postemergence, 31 g ai/ha, visual injury after approx. 10 d, 0 to 100 scale, 0 no effect, 100 complete control, read-out: Plant response rating, Galium
In short: as §1

[8] = system: Kochia (Kochia scoparia); assay: Test A postemergence; settings: Bassia scoparia, post-emergence, 240 h; for pest or weed control at 125 g/ha: 125 g ai/ha, postemergence, visual injury on 0 to 100 scale (0 no effect, 100 complete control), approx. 10 d, read-out: Kochia plant response rating; for pest or weed control at 31 g/ha: Postemergence, 31 g ai/ha, visual injury after approx. 10 d, 0 to 100 scale, 0 no effect, 100 complete control, read-out: Plant response rating, Kochia
In short: as §1

[9] = system: barnyardgrass (Echinochloa crus-galli); assay: Test A postemergence; settings: Echinochloa crus-galli, post-emergence, 240 h; for pest or weed control at 125 g/ha: 125 g ai/ha, postemergence, visual injury on 0 to 100 scale (0 no effect, 100 complete control), approx. 10 d, read-out: Barnyardgrass plant response rating; for pest or weed control at 31 g/ha: Postemergence, 31 g ai/ha, visual injury after approx. 10 d, 0 to 100 scale, 0 no effect, 100 complete control, read-out: Plant response rating, Barnyardgrass
In short: as §1

[10] = system: blackgrass (Alopecurus myosuroides); assay: Test A postemergence; settings: Alopecurus myosuroides, post-emergence, 240 h; for pest or weed control at 125 g/ha: 125 g ai/ha, postemergence, visual injury on 0 to 100 scale (0 no effect, 100 complete control), approx. 10 d, read-out: Blackgrass plant response rating; for pest or weed control at 31 g/ha: Postemergence, 31 g ai/ha, visual injury after approx. 10 d, 0 to 100 scale, 0 no effect, 100 complete control, read-out: Plant response rating, Blackgrass
In short: as §1

[11] = system: corn (Zea mays); assay: Test A postemergence; settings: Zea mays, post-emergence, 240 h; for plant injury at 125 g/ha: 125 g ai/ha, postemergence, visual injury on 0 to 100 scale (0 no effect, 100 complete control), approx. 10 d, read-out: Corn plant response rating; for Corn plant response rating (crop injury, 0 = no effect, 100 = complete kill) at 31 g/ha: Postemergence, 31 g ai/ha, visual injury after approx. 10 d, 0 to 100 scale, 100 complete control
In short: as §1

[12] = system: giant foxtail (Setaria faberii); assay: Test A postemergence; settings: Setaria faberi, post-emergence, 240 h; for pest or weed control at 125 g/ha: 125 g ai/ha, postemergence, visual injury on 0 to 100 scale (0 no effect, 100 complete control), approx. 10 d, read-out: Foxtail, Giant plant response rating; for pest or weed control at 31 g/ha: Postemergence, 31 g ai/ha, visual injury after approx. 10 d, 0 to 100 scale, 0 no effect, 100 complete control, read-out: Plant response rating, Foxtail, Giant
In short: as §1

[13] = system: pigweed (Amaranthus retroflexus); assay: Test A postemergence; settings: Amaranthus retroflexus, post-emergence, 240 h; for pest or weed control at 125 g/ha: 125 g ai/ha, postemergence, visual injury on 0 to 100 scale (0 no effect, 100 complete control), approx. 10 d, read-out: Pigweed plant response rating; for pest or weed control at 31 g/ha: Postemergence, 31 g ai/ha, visual injury after approx. 10 d, 0 to 100 scale, 0 no effect, 100 complete control, read-out: Plant response rating, Pigweed
In short: as §1

[14] = system: ragweed (common ragweed, Ambrosia elatior); assay: Test A postemergence; settings: Ambrosia artemisiifolia, post-emergence, 240 h; for pest or weed control at 125 g/ha: 125 g ai/ha, postemergence, visual injury on 0 to 100 scale (0 no effect, 100 complete control), approx. 10 d, read-out: Ragweed plant response rating; for pest or weed control at 31 g/ha: Postemergence, 31 g ai/ha, visual injury after approx. 10 d, 0 to 100 scale, 0 no effect, 100 complete control, read-out: Plant response rating, Ragweed
In short: as §1

[15] = system: ryegrass, Italian (Italian ryegrass, Lolium multiflorum); assay: Test A postemergence; settings: Lolium multiflorum, post-emergence, 240 h; for pest or weed control at 125 g/ha: 125 g ai/ha, postemergence, visual injury on 0 to 100 scale (0 no effect, 100 complete control), approx. 10 d, read-out: Ryegrass, Italian plant response rating; for pest or weed control at 31 g/ha: Postemergence, 31 g ai/ha, visual injury after approx. 10 d, 0 to 100 scale, 0 no effect, 100 complete control, read-out: Plant response rating, Ryegrass, Italian
In short: as §1

[16] = system: wheat (Triticum aestivum); assay: Test A postemergence; settings: Triticum aestivum, post-emergence, 240 h; for plant injury at 125 g/ha: 125 g ai/ha, postemergence, visual injury on 0 to 100 scale (0 no effect, 100 complete control), approx. 10 d, read-out: Wheat plant response rating; for plant injury at 31 g/ha: Postemergence, 31 g ai/ha, visual injury after approx. 10 d, 0 to 100 scale, 0 no effect, 100 complete control, read-out: Plant response rating, Wheat
In short: as §1

[17] = system: barnyardgrass (Echinochloa crus-galli); assay: Test B flooded paddy test; settings: Echinochloa crus-galli, 250 g ai/ha, Flood; 0 to 100 scale where 0 is no effect and 100 is complete control; read-out: Barnyardgrass plant response rating
In short: (§2)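 Percent control, visually estimated after 13–15 d in the greenhouse on a 0–100 basis, compares treated pots with untreated ones; compound was put into paddy water 3 cm above the soil when plants had two leaves.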

[18] = system: ducksalad (Heteranthera limosa); assay: Test B flooded paddy test; settings: Heteranthera limosa, 250 g ai/ha, Flood; 0 to 100 scale where 0 is no effect and 100 is complete control; read-out: Ducksalad plant response rating
In short: as §2

[19] = system: rice (Oryra sativa); assay: Test B flooded paddy test; settings: Oryza sativa, 250 g ai/ha, Flood; 0 to 100 scale where 0 is no effect and 100 is complete control; read-out: Rice plant response rating
In short: as §2

[20] = system: sedge, umbrella (small-flower umbrella sedge, Cyperus difformis); assay: Test B flooded paddy test; settings: Cyperus difformis, 250 g ai/ha, Flood; 0 to 100 scale where 0 is no effect and 100 is complete control; read-out: Sedge, Umbrella plant response rating
In short: as §2

Compound | pest or weed control at 31 g/ha [1] [%] | pest or weed control at 125 g/ha [1] [%] | pest or weed control at 31 g/ha [2] [%] | pest or weed control at 125 g/ha [2] [%] | pest or weed control at 31 g/ha [3] [%] | pest or weed control at 125 g/ha [3] [%] | pest or weed control at 31 g/ha [4] [%] | pest or weed control at 125 g/ha [4] [%] | pest or weed control at 31 g/ha [5] [%] | pest or weed control at 125 g/ha [5] [%] | pest or weed control at 31 g/ha [6] [%] | pest or weed control at 125 g/ha [6] [%] | pest or weed control at 125 g/ha [7] [%] | pest or weed control at 31 g/ha [7] [%] | pest or weed control at 125 g/ha [8] [%] | pest or weed control at 31 g/ha [8] [%] | pest or weed control at 125 g/ha [9] [%] | pest or weed control at 31 g/ha [9] [%] | pest or weed control at 125 g/ha [10] [%] | pest or weed control at 31 g/ha [10] [%] | also measured
O=C1NC[C@H](c2ccc(C(F)(F)F)cn2)[C@H]1C(=O)Nc1ccc(F)c(F)c1F [Compound 1105] | 0 | 70 | 30 | 60 | 20 | 90 | 0 | 0 | 0 | 20 | 0 | 0 | 40 | 30 | 20 | 0 | 30 | 0 | 0 | 0 | plant injury at 125 g/ha [11]: 0%; Corn plant response rating (crop injury, 0 = no effect, 100 = complete kill) at 31 g/ha [11]: 0%; pest or weed control at 125 g/ha [12]: 50%; pest or weed control at 31 g/ha [12]: 0%; pest or weed control at 125 g/ha [13]: 0%; pest or weed control at 31 g/ha [13]: 0%; pest or weed control at 125 g/ha [14]: 0%; pest or weed control at 31 g/ha [14]: 0%; pest or weed control at 125 g/ha [15]: 0%; pest or weed control at 31 g/ha [15]: 0%; plant injury at 125 g/ha [16]: 0%; plant injury at 31 g/ha [16]: 0%; pest or weed control at 250 g/ha [17]: 50%; pest or weed control at 250 g/ha [18]: 100%; pest or weed control at 250 g/ha [19]: 20%; pest or weed control at 250 g/ha [20]: 0%
CN1C[C@H](c2ccc(C(F)(F)F)nc2)[C@@](C)(C(=O)Nc2ccc(F)c(F)c2F)C1=O [Compound 1110] | 0 | 70 | 90 | 100 | 90 | 100 | 60 | 90 | 0 | 40 | 30 | 50 | 50 | 20 | 70 | 30 | 90 | 80 | 60 | 0 | plant injury at 125 g/ha [11]: 80%; Corn plant response rating (crop injury, 0 = no effect, 100 = complete kill) at 31 g/ha [11]: 30%; pest or weed control at 125 g/ha [12]: 90%; pest or weed control at 31 g/ha [12]: 60%; pest or weed control at 125 g/ha [13]: 50%; pest or weed control at 31 g/ha [13]: 20%; pest or weed control at 125 g/ha [14]: 30%; pest or weed control at 31 g/ha [14]: 0%; pest or weed control at 125 g/ha [15]: 60%; pest or weed control at 31 g/ha [15]: 40%; plant injury at 125 g/ha [16]: 70%; plant injury at 31 g/ha [16]: 30%; pest or weed control at 250 g/ha [17]: 90%; pest or weed control at 250 g/ha [18]: 100%; pest or weed control at 250 g/ha [19]: 50%; pest or weed control at 250 g/ha [20]: 0%
